Test results: patent US4092426A, “Novel aminobenzoic acid derivatives, process for preparing the same and pharmaceutical composition containing the same” (Chugai Seiyaku Kabushiki Kaisha, priority 1975, dated 1978)
Where a name gives a salt, the structure may show the parent alone.

How the values were obtained:
neutrocyte = assay: Activity for Improving Bacteriocidal Ability in Neutrocyte (NBT test); type: in vivo, JW/CSK strain white male rabbits; settings: rabbit, oral 100 mg/kg
Experimental: As test animals, JW/CSK strain white male rabbits weighing 3.0 - 3.9 kg were used, dividing them into groups of 5 members each. Each rabbit was orally administered with the test compound, disodium salt of N-2'-carboxyphenyl-4-chloroanthranilic acid in a dose of 100 mg/kg, and 24 hours after the administration, neutrocyte in the blood of the peripheral vessels were reacted with nitrobluetetrazorium (NBT) and then the proportion of cells positive to formazan was measured by a microscope. As the control, the value obtained from the same animal just 3 days before the administration of the test compound was referred to.

[1] = system: Pseudomonas aeruginosa Pa-II; assay: Activity for Protecting from Infection by Bucillus Pyocyaneous, with carbenicillin; type: in vivo; settings: mouse; with carbenicillin
Experimental: As test animals, ddY strain male mice (5 week old) which were divided into groups of 9 members each were used. Each mouse was intraperitoneally administered with 10^6 Pseudomonas aeruginosa Pa-II, and 1.5 hours after the administeration, subcutaneously administered one shot of carbenicillin, an antibiotic. The test compound, disodium salt of N-2'-carboxyphenyl-4-chloroanthranilic acid, was orally administered once a day in a dose of 2 mg/head one and two days before the inoculation, respectively. The activity of the test compound was evaluated by observing the test animals for 54 hours after the inoculation.

[2] = system: Pseudomonas aeruginosa Pa-II; assay: Activity for Protecting from Infection by Bucillus Pyocyaneous; type: in vivo; settings: oral 2 mg/head; for Survival Terms: individual animals
Excerpt: As test animals, ddY strain male mice (5 week old) which were divided into groups of 7 members each were used. Each mouse was intraperitoneally inoculated with bucillus pyocyaneous, Pseudomonas aeruginosa Pa-II.

Sarcoma-180 = assay: growth of Sarcoma-180 tumor cells in vitro; type: cell-based
[3] = system: plaque forming cells (PFC) in the spleen; assay: Activity for Recovering Immune Depletion by cortisone: plaque forming cells (PFC) in the spleen; type: in vivo, IV CS strain male mice; settings: 10 mg/kg oral, cortisone-treated
Experimental: As test animals, IV CS strain male mice (5 week old) were used by dividing them into groups of 5 members each. Each mouse was intraperitoneally administered with cortisone in a dose of 60 mg/kg once a day for 5 days. Three days after the first administration, the sensitization with an antigen, sheep red blood cell (SRBC), was made by injecting the antigen into the mouse through the tail vein. Each mouse was orally administered with the test compound, disodium salt of N-2'-carboxyphenyl-4-chloroanthranilic acid, a day after the sensitization. Five days after the sensitization, the number of plaque forming cells (PFC) in the spleen was measured in a usual manner.

[4] = system: Salmonella enteritidis TO-1; assay: Activity for Protecting from Infection by Salmonellae, with streptomycine; type: in vivo; settings: mouse; oral 2 mg/head; with streptomycine 0.5 mg/head s.c.
Experimental: As test animals, ddY strain male mice (5 week old) which were divided into groups of 7 members each were used. Each mouse was intraperitoneally inoculated with 10^5 Salmonella enteritidis TO-1, and 3 hours after the inoculation, was subcutaneously administered one shot of streptomycine in a dose of 0.5 mg/head.

AH-13 = assay: Antitumor Activity to Transplanted Cancer Cells (AH-13); type: in vivo, Donryu strain female rats; settings: for Average Survival Terms: control 7.1
Excerpt: As test animals, Donryu strain female rats (8 week old) which were divided into groups of 10 members each were used. Each rat was intraperitoneally administered with test compound, disodium salt of N-2'-carboxyphenyl-4-chloroanthranilic acid, once a day for 10 days from 16 days before the inoculation of the tumor cells disclosed hereinbelow. Sixteen days after the first administration of the test compound, each rat was intraperitoneally inoculated with 10^6 tumor cells identified as AH-13 to induce cancer of abdominal dropsy.

O=C(O)c1ccccc1Nc1cc(Cl)ccc1C(=O)O [disodium salt of N-2'-carboxyphenyl-4-chloroanthranilic acid]
proportion of neutrocyte cells positive to formazan (neutrocyte): significantly increased | NBT Value (neutrocyte; 24 h after, before treatment 11.4 ± 1.8, P<0.05, Average ± Standard Deviation): 33.3 ± 7.8% | bacteriocidal activity of the antibiotic with the test compound [1]: improved bacteriocidal activity | Survival Terms ([2]; 2 × 10^4 bacteria/head, mouse, S: survival at 54 hours): S,S,S,S,S and S,S | Dead Animal/Test Animal ([2]; 2 × 10^4 bacteria/head, control 1/7): 0/7 | activity for protecting from the bacterial infection ([2]; 2 × 10^5 bacteria per head): activity of the test compound for protecting from the bacterial infection was observed | Survival Terms ([2]; 2 × 10^5 bacteria/head, mouse, S: survival at 54 hours): S,S | Dead Animal/Test Animal ([2]; 2 × 10^5 bacteria/head, control 6/7): 1/7 | Survival Terms ([2]; 2 × 10^6 bacteria/head, mouse): 29,29 hours | Dead Animal/Test Animal ([2]; 2 × 10^6 bacteria/head, control 7/7): 7/7 | effect on bacillary toxin ([2]; mouse): acts to lower the bacillary toxin | direct antitumor activity on Sarcoma-180 cells (Sarcoma-180; directly on the cells): no antitumor activity directly on the cells | growth of Sarcoma-180 cells in vitro (Sarcoma-180; in vitro): does not suppress the growth | number of PFC [3]: significantly increased | bacteriocidal activity of the antibiotic with the test compound [4]: improved bacteriocidal activity | T/C (AH-13; 50 mg/kg i.p.): 163% | host-mediated antitumor activity (AH-13) (AH-13; 50 mg/kg i.p.): exhibits host-mediated antitumor activity | Average Survival Terms (AH-13; 50 mg/kg i.p.): 11.6 days | T/C (AH-13; 100 mg/kg i.p.): 103% | Average Survival Terms (AH-13; 100 mg/kg i.p.): 7.3 days | T/C (AH-13; 200 mg/kg i.p.): 97% | Average Survival Terms (AH-13; 200 mg/kg i.p.): 6.9 days
